The values that follow come from US20140130208A1, “METHODS AND MEANS TO PRODUCE ABIOTIC STRESS TOLERANT PLANTS” (VIB VZW, priority 2011, published 2014).

In test [1] the test system is CDKA. Put plainly: CDKA activity assay on protein extracted from proliferating third leaves. The test is classed as in vivo, Arabidopsis thaliana. The protocol: (§1) At 9 DAS, when the third leaf is fully proliferating, seedlings were transferred to plates containing control medium or medium supplemented with 25 mM mannitol (Sigma-Aldrich) or 5 μM ACC (Sigma-Aldrich) by gently lifting the nylon mesh with forceps. For the CDKA activity assay the transfer was done at 11 DAS; at this stage, the third leaf is still dividing and can be quickly harvested without the need for RNAlater solution (see below) that would inhibit CDKA activity. All transfers were performed 2-3 h into the day.
Total soluble protein was extracted from 50 leaves by adding extraction buffer (Van Leene et al., 2007) to ground samples, followed by two freeze-thaw steps and two centrifugation steps (20,817 g, 10 min, 4° C.), whereby the supernatant was collected each time. Equal amounts of total protein were incubated with p9^CKS1Hs-sepharose beads (De Veylder et al., 1997) and kinase assays were performed as described (De Veylder et al., 1997) with histone H1 as CDK substrate. To correct for the amount of CDKA protein purified by p9^CKS1Hs-sepharose beads, an aliquot of each sample was used for protein gel blot analysis with primary rabbit anti-PSTAIRE antibodies (Santa Cruz) (diluted 1:5000) and a secondary horseradish peroxidase-conjugated donkey anti-rabbit antibodies (GE-Healthcare) (diluted 1:10,000). Proteins were detected by chemiluminescence (Western Lightning Plus ECL, PerkinElmer Life Sciences). CDK activity and CDKA amount were quantified with ImageJ v1.41o. Control samples were arbitrarily set at 100%.

In test [2] the test system is Arabidopsis thaliana third true leaf. Put plainly: Growth (kinematic) analysis of the third leaf after transfer of seedlings to mannitol- or ACC-containing medium. It counts as in vivo. The protocol:
Arabidopsis seedlings were germinated and grown on nylon meshes overlaying control medium until 9 days after stratification (DAS), when the third true leaf is fully proliferating (Skirycz et al., 2010), and subsequently transferred to control or mannitol-containing medium (FIGS. 1A to 10). Kinematic analysis was performed, whereby leaves were harvested daily throughout development of leaf 3 (9-20 DAS) and based on drawings of the abaxial epidermis cell number, cell area, number of guard cells and cell division and cell expansion rates were calculated (De Veylder et al., 2001). […] Leaf and plant morphology were not altered by mannitol (FIG. 2C). Cell expansion was also affected by stress and the reduced final leaf area was a combination of fewer and smaller cells (FIG. 2D). The stomatal index, which represents the number of stomata as a fraction of the total number of cells, was reduced as well (FIG. 2E). To learn more about the mechanisms underlying the rapid reduction of cell division upon stress onset, we harvested leaf samples daily after transfer. As a measure of cellular differentiation, the ploidy distribution was examined by flow cytometry. […] In stressed leaves, 4C nuclei started to accumulate approximately one day earlier than in controls at the expense of 2C nuclei (FIG. 3A). Analogously, the number of 8C nuclei increased sharply at 14 DAS in stressed leaves, but only at 15 DAS in control samples (FIG. 3A). Again, transfer itself had no effect on ploidy levels (not shown). […] This observation was further investigated with a CYCB1;1:Dbox-GUS reporter line. Staining for CYCB1;1:Dbox-GUS activity visualizes cells at the G2-to-M transition, reflecting mitotic activity (Colón-Carmona et al., 1999). The most apparent differences were observed 48 h after transfer. […] While the relative size of the cell proliferation zone was similar in mannitol-treated leaves, the remaining proliferating cells were found in a dispersed pattern throughout this zone. […] Within a few days after transfer, division rates adapted to the new conditions and compensation effects were observed.
Seedlings of Arabidopsis thaliana (L.) Heyhn. ecotype Columbia-0 (Col-0) were grown in vitro in half-strength Murashige and Skoog medium (Murashige and Skoog, 1962), supplemented with 1% sucrose under a 16-h day (110 μmol m^−2 s^−1) and 8-h night regime. Plates were overlaid with nylon mesh (Prosep, Zaventem, Belgium) of 20 μm pore size to avoid that roots grew into the medium. Depending on the experiment, 32 or 64 seeds were equally distributed on a 150-mm diameter plate. Mutant plants were grown together with their wild-type controls on the same plate.
as §1
Growth analysis was performed on the third true leaf harvested at different time points after transfer. After clearing with 70% ethanol, leaves were mounted in lactic acid on microscopic slides. For each experiment, 8-12 leaves were photographed with a binocular, and epidermal cells (40-300) were drawn for four representative leaves with a DMLB microscope (Leica) fitted with a drawing tubus and a differential interference contrast objective. Photographs of leaves and drawings were used to measure leaf and cell area, respectively, with ImageJ v1.41o (NIH; http://rsb.info.nih.gov/ij/), from which the cell numbers were calculated. The stomatal index was defined as the percentage of stomata per all cells. […]

Test [3] concerns CDKB2;1 and CYCB1;1. Put plainly: Expression of mitotic cell cycle genes CDKB2;1 and CYCB1;1. The test is classed as in vivo, Arabidopsis thaliana. The settings on record: 5 μM ACC.
In test [4] the test system is Arabidopsis thaliana third true leaf. Put plainly: Ploidy analysis of leaf 3 by flow cytometry (endoreduplication onset). The settings on record: transfer at 9 DAS to 25 mM mannitol or 5 μM ACC. The test is classed as in vivo. How it is done: Arabidopsis seedlings were germinated and grown on nylon meshes overlaying control medium until 9 days after stratification (DAS), when the third true leaf is fully proliferating (Skirycz et al., 2010), and subsequently transferred to control or mannitol-containing medium (FIGS. 1A to 10). Kinematic analysis was performed, whereby leaves were harvested daily throughout development of leaf 3 (9-20 DAS) and based on drawings of the abaxial epidermis cell number, cell area, number of guard cells and cell division and cell expansion rates were calculated (De Veylder et al., 2001). […] Leaf and plant morphology were not altered by mannitol (FIG. 2C). Cell expansion was also affected by stress and the reduced final leaf area was a combination of fewer and smaller cells (FIG. 2D). The stomatal index, which represents the number of stomata as a fraction of the total number of cells, was reduced as well (FIG. 2E). To learn more about the mechanisms underlying the rapid reduction of cell division upon stress onset, we harvested leaf samples daily after transfer. […]
For flow cytometry analysis, nuclei were extracted by chopping 4-32 leaves with a razor blade in 1 ml of 45 mM MgCl2, 30 mM sodium citrate, 20 mM 3-(N-morpholino)propanesulfonic acid, pH 7, and 1% Triton X-100 (Galbraith et al., 1983). […] The nuclei were analyzed with a CyFlow flow cytometer with the FloMax Software (Partec).
Background: Flow cytometry measures light scatter and fluorescence of single cells or particles in a stream.

Test [5] concerns CYCB1;1:Dbox-GUS reporter line. Put plainly: CYCB1;1:DBox-GUS staining of mitotic activity in leaf 3. The test is classed as in vivo, Arabidopsis thaliana. The settings on record: 48 h after transfer to 25 mM mannitol or 5 μM ACC. How it is done: Arabidopsis seedlings were germinated and grown on nylon meshes overlaying control medium until 9 days after stratification (DAS), when the third true leaf is fully proliferating (Skirycz et al., 2010), and subsequently transferred to control or mannitol-containing medium (FIGS. 1A to 10). Kinematic analysis was performed, whereby leaves were harvested daily throughout development of leaf 3 (9-20 DAS) and based on drawings of the abaxial epidermis cell number, cell area, number of guard cells and cell division and cell expansion rates were calculated (De Veylder et al., 2001). […] Leaf and plant morphology were not altered by mannitol (FIG. 2C). Cell expansion was also affected by stress and the reduced final leaf area was a combination of fewer and smaller cells (FIG. 2D). The stomatal index, which represents the number of stomata as a fraction of the total number of cells, was reduced as well (FIG. 2E). To learn more about the mechanisms underlying the rapid reduction of cell division upon stress onset, we harvested leaf samples daily after transfer. As a measure of cellular differentiation, the ploidy distribution was examined by flow cytometry. […] In stressed leaves, 4C nuclei started to accumulate approximately one day earlier than in controls at the expense of 2C nuclei (FIG. 3A). […]

[6] abbreviates: transfer at 9 DAS to 25 mM mannitol or 5 μM ACC, leaf 3.

Take 1-aminocyclopropane-1-carboxylate [ACC]: in test [1] (ACC treatment, etr1.3 and ein5.1 mutants), the CDKA activity reduced entry is “not”. Further, the CDKA activity entry in test [1] (ACC treatment, wild-type and ein3.1) was “reduced”; in test [1] (wild type, 10 and 24 h after transfer to 25 mM mannitol or 5 μM ACC), “decreased as early as 10 h after transfer”. Moreover, the “ACC-related decrease in leaf area” value is listed as “comparable to that of the wild-type” in test [2] (ein3.1 and eil1 mutants); “significantly less” in test [2] (etr1.3, ein5.1, mkk9 and ein2.5 mutants, versus wild type). Besides, the cell proliferation rates result in test [2] (setting [6]) is listed as “rapid reduction of cell proliferation rates”. Besides, the stomatal index entry in test [2] (setting [6]) was “not affected”. In addition, the “expression of mitotic cell cycle genes CDKB2;1 and CYCB1;1” value in test [3] is “no difference”. Further, the endoreduplication onset entry in test [4] is given as “no changes in endoreduplication onset”. Further, in test [5], the “number of mitotic cells (CYCB1;1:DBox-GUS activity)” value is “no changes in the number of mitotic cells”.
